# Assays:
# [1] = aggregation of peptides in culture medium; type: physicochemical
# Excerpt: (§1) Dissociated embryonic rat hippocampal cell cultures were established and maintained. All procedures conformed with the NIH Guide for the Care and Use of Laboratory Animals and were approved by the University of Kentucky Animal Care and Use Committee. Cultures were maintained on a polyethyleneimine-coated substrate in plastic 35-mm dishes or 96 wall plates (for cell survival studies) or glass-bottom 35-mm dishes (for [Ca^2+ ]i imaging studies). The cell density was ^~ 70-100 cells/mm^2. Cells were maintained in Eagle's minimum essential medium supplemented 10% with fetal bovine serum and containing 20 mM sodium pyruvate. […] Aβ25-35 (Bachem, lot ZJ744) and Aβ1-40 (Bachem, lot ZK600) were stored in the lyophilized form, and stocks were prepared immediately before use by dissolving the peptide at a concentration of 1 mM in sterile distilled water. […] Glutamate and colchicine (Sigma) were prepared as 200-500x stocks in saline. Cytochalasins D and E (Sigma) and calcium ionophore 4-bromo-A23187 (Calbiochem) were prepared as 500x stocks in dimethyl sulfoxide. Vitamin E (α-tocopherol; Sigma) was prepared as a 500x stock in ethanol. Nordihydroguaiaretic acid and FeSo4 were prepared as 500x stocks in sterile water.
# [2] = tested on: cultured hippocampal neurons; type: cell-based, rat; settings: for neurotoxicity, preliminary characterization: 48-h period, added in soluble form
# Excerpt: as §1
# (§2) Neuronal survival was quantified by counting viable neurons in the same microscope fields (10x objective) immediately before experimental treatment and at time points after treatment. In addition, cells were grown in 96-well plates and Alamar blue fluorescence (Alamar Laboratories)was quantified by using a fluorescence plate reader. Alamar Blue is a non-fluorescent substrate that, after reduction by cell metabolites, becomes fluorescent. Usually neurons that died in the time intervals (20-48 h) between examination points were absent. Viability of the remaining neurons was assessed by morphological criteria. Neutrons with intact neurites of uniform diameter and a soma with a smooth, round appearance were considered viable, whereas neurons with fragmented neurites and a vacuolated or swollen soma were considered nonviable. Survival values were expressed as percentages of the initial number of neurons present before experimental treatment. Statistical comparisons were made using ANOVA and Scheffe post-hoc tests for pairwise comparisons.
# FIG. 12. (A) Cultures were pretreated for 1 h with vehicle 0.2% dimethyl sulfoxide (Control) or 100 nM cytochalasin D (CyD) and were exposed to the indicated concentrations of Aβ25-35 for 48 h. Data are mean and SEM values of determinations made in four separate cultures.
# (B) Cultures were pretreated for 1 h with the indicated concentrations of cytochalasin D and then exposed to 50 μM Aβ25-35; parallel cultures were exposed to cytochalasin D alone (Control) . Data are mean and SEM values of determinations made in four separate cultures.
# FIG. 14. Cultures were exposed to 100 nM colchicine; 50 μM Aβ; 100 nM colchicine plus 50 μM Aβ; 100 nM cytochalasin E (CyE) plus Aβ (colchicine and cytochalasin E were added 1 h before Aβ); neuronal survival was assessed 48 h later. Data are mean and SEM values of determinations made in four separate cultures. *p<0.01, compared with values for control or colchicine alone. **p<0.01, compared with value for cultures exposed to Aβ alone.
# [3] = tested on: cultured hippocampal neurons; experiment: calcium ionophore A23187 neurotoxicity; type: cell-based, rat
# Excerpt: as §1
# (§3) Neuronal survival was quantified by counting viable neurons in the same microscope fields (10x objective) immediately before experimental treatment and at time points after treatment. In addition, cells were grown in 96-well plates and Alamar blue fluorescence (Alamar Laboratories)was quantified by using a fluorescence plate reader. Alamar Blue is a non-fluorescent substrate that, after reduction by cell metabolites, becomes fluorescent. […] Viability of the remaining neurons was assessed by morphological criteria. […] Survival values were expressed as percentages of the initial number of neurons present before experimental treatment. […]
# FIG. 7. Cultures were pretreated for 1 h with 0.2% dimethylsulfoxide (control) or 100 nM cytochalasin D. Calcium ionophore A23187 was then added at the indicated concentrations and neuronal survival was assessed 8 h later. […]
# [4] = tested on: cultured hippocampal neurons; experiment: cells; type: cell-based, rat
# Excerpt: as §1, §2
# Values represent the means and SEM of 4 separate cultures (cell counts) or 4 culture wells (Alamar blue assay). ^a p<0.05 compared to control value. ^b p<0.001 compound to control value. ^c p<0.01 compared to value for glutamate-treated cultures. ^d p<0.005 compared to value for glutamate-treated cultures. ^e p<0.001 compared to value for Aβ-treated cultures. ^f p<0.001 compared to value for cultures treated with 20 μM glutamate. ^g p<0.001 compared to cultures treated with 50 μM Aβ+20 μM glutamate. n.d. not determined.
# [5] = tested on: neuronal [Ca^2+]i in cultured hippocampal neurons; experiment: measurement of [Ca^2+]i, fura-2 imaging; type: cell-based, rat; settings: 50 μM glutamate
# [6] = tested on: cultured hippocampal neurons; experiment: neurotoxicity of combined exposure to Aβ and glutamate; type: cell-based, rat; settings: 50 μM Aβ plus 20 μM glutamate, 48 h; compared with either insult alone
# Excerpt: Dissociated embryonic rat hippocampal cell cultures were established and maintained. All procedures conformed with the NIH Guide for the Care and Use of Laboratory Animals and were approved by the University of Kentucky Animal Care and Use Committee. Cultures were maintained on a polyethyleneimine-coated substrate in plastic 35-mm dishes or 96 wall plates (for cell survival studies) or glass-bottom 35-mm dishes (for [Ca^2+ ]i imaging studies). The cell density was ^~ 70-100 cells/mm^2. Cells were maintained in Eagle's minimum essential medium supplemented 10% with fetal bovine serum and containing 20 mM sodium pyruvate. […]
# as §3, with “reader.” for “reader. Alamar Blue is a non-fluorescent substrate that, after reduction by cell metabolites, becomes fluorescent.”
# FIG. 13. […] Neuronal survival was assessed 48 h after treatment. […]
# [7] = tested on: neuronal [Ca^2+]i in cultured hippocampal neurons; experiment: measurement of [Ca^2+]i, fura-2 imaging; type: cell-based, rat; settings: 50 μM Aβ
# Excerpt: as §1
# Fluorescence ratio imaging of the Ca^2+ indicator dye fura-2 was used to quantify [Ca^2+ ]i in neuronal somata. Cells were incubated for 30-40 min in the presence of 2 μM acetoxymethyl ester form of the [Ca^2+ ]i indicator dye fura-2 and were then washed twice (2 ml/wash) with fresh medium and allowed to incubate at least 40 min before imaging. Immediately before imaging, the normal culture medium was replaced with Hanks' balanced saline solution (GIBCO) containing 10 mM HEPES buffer and 10 mM of glucose. Cells were imaged using a Zeiss Attofluor system with a oil objective or Quantex system with a 40x oil objective. The ratio of the fluorescence emission using two different excitation wavelengths (334 and 380 nm) was used to determine [Ca^2+ ]i. The system was calibrated using solutions containing either no Ca^2+ or a saturating level of Ca^2+ (1 mM) according to the following formula: [Ca^2+ ]i =KD [(R-Rmin) / (Rmax -R)] (F0 /FS). Values represent the average [Ca^2+ ]i in the neuronal cell body. Experimental treatments were added to the bathing medium by dilution from 100-500x stocks.
# (A) Cultures were pretreated for 1 hr with 100 nM cytochalasin D and then [Ca^2+ ]i in neurons was monitored prior to and following exposure to 50 μM glutamate. The records represent the mean [Ca^2+ ]i in 8-12 neurons. Similar results were obtained in 4 separate experiments.
# (B) Aβ-induced potentiation of [Ca^2+ ]i response to glutamate is abrogated by cytochalasin D. Cultures were left untreated (Control) or were exposed to 20 μM Aβ25-35 for 6 hr or cytochalasin D plus Aβ25-35 for 6 hr. The [Ca^2+ ]i was then monitored prior to following exposure to 50 μM glutamate. Values represent the means of 8-14 neurons. Similar results were obtained in 3 separate experiments.
# (C) Cultures were pretreated for 3 hr with 50 μM Aβ alone or in combination with 100 nM cytochalasin D. The [Ca^2+ ]i in neurons was then monitored prior to and following exposure to 50 mM KCl. Values represent the mean of 14-23 neurons. Similar results were obtained in a separate experiment.
# (D) Cultures were pretreated for 1 h with 100 nM cytochalasin D. The [Ca^2+ ]i in neurons was measured immediately prior to, and at 5 min following, exposure to the indicated concentrations of glutamate. Values represent the means and SEM of determinations made in 17-26 neurons. *P<0.05 (10 μM glutamate), P<0.02 (50 μM glutamate), P<0.01 (100 μAM glutamate) compared to corresponding control values.
# FIG. 9. Cultures were pretreated for 3 h with vehicle (control) or 10 μM jasplakinolide. The [Ca^2+ ]i was monitored prior to and following exposure to 50 μM glutamate. Values represent the mean of determinations made in 10-12 neurons. Similar results were obtained in two additional experiments.
# FIG. 10. […]
# [8] = tested on: cultured hippocampal neurons; experiment: hydrogen peroxide neurotoxicity; type: cell-based, rat
# Excerpt: as §1
# as §2, with “Usually neurons that died in the time intervals (20-48 h) between examination points were absent.” left out
# FIG. 15. […] Cultures were pretreated for 1 h with vehicle (Control), 100 nM cytochalasin D (CyD), or 50 μg/ml vitamin E (vE) and then exposed for 20 h to the indicated concentrations of hydrogen peroxide. Data are mean and SEM values of determinations made in four separate cultures.
# [9] = tested on: cultured hippocampal neurons; experiment: iron (FeSO4) neurotoxicity; type: cell-based, rat; settings: 50 μg/ml vitamin E or 2 μM NDGA, 1 h preincubation
# Excerpt: as §1, §2
# FIG. 8. Cultures were preincubated 1 h in the presence of 0.5% dimethylsulfoxide (control), 100 nM cytochalasin D, 50 μg/ml vitamin E (VitE), or 2 μM nordihydroguairetic acid (NDGA). Cultures were then exposed for 6 h to the indicated concentrations of FeSO4 and neuronal survival was quantified. Values represent the means and SEM of determinations made in four separate cultures. *P<0.001 compared to value for cultures exposed to 100 μM FeSO4 alone.
molecule,measurement,setting,value
"Aβ1-40: Aβ1-40 (Bachem, lot ZK600), amyloid β-peptide [reference compound]",aggregation in culture medium,[1],aggregated rapidly
same,"neurotoxicity, preliminary characterization",[2],progressively killed neurons
CNc1ccc2oc(C[C@H]3O[C@@]4(CC[C@H]3C)O[C@H]([C@H](C)C(=O)c3ccc[nH]3)[C@H](C)C[C@H]4C)nc2c1C(=O)O [A23187],neurons killed,[3]; 1 μM,essentially all neurons being killed
same,neuronal survival,[3]; 100-1000 nM,concentration-dependent reduction in neuronal survival
"Aβ25-35: Aβ25-35 (Bachem, lot ZJ744), amyloid β-peptide fragment (GSNKGAIIGLM; Amyloid-beta protein 42; UniProt P05067 696-706, looked up, fragment) [reference compound]","Neuron Survival (% of control), Alamar Blue Assay",[4]; 50 μM Aβ + 20 μM Glutamate,24 ± 0.8 % of control
same,"Neuron Survival (% of control), Alamar Blue Assay","[4]; 50 μM, alone",47 ± 3.5 % of control
same,[Ca^2+]i reached after glutamate in Aβ-pretreated cultures,[5]; Aβ pretreatment 3 h,"> 1,500 nM"
same,[Ca^2+]i reached after glutamate in Aβ-pretreated cultures,[5]; Aβ pretreatment 3 hr,over 1 μM
same,aggregation in culture medium,[1],aggregated rapidly
same,neuronal survival in cultures exposed to Aβ25-35,"[2]; 50 μM, 24 hr",less than 50 % of control values
same,neuronal survival upon exposure to Aβ25-35,[2]; 24-h incubation,concentration-dependent reduction in neuronal survival
same,"neurotoxicity, preliminary characterization",[2],progressively killed neurons
same,neuronal death on combined exposure to Aβ and glutamate,[6],significantly more neuronal death
same,rest [Ca^2+]i,[7]; 3 h,~ 280 nM
same,rest [Ca^2+]i,[7]; 6 h,~ 440 nM
"OO [Hydrogen peroxide, hydrogen peroxide, reference compound]",neuronal survival,[8]; 20-h exposure,concentration-dependent reduction in neuronal survival
"Cc1c(C)c2c(c(C)c1O)CCC(C)(CCCC(C)CCCC(C)CCCC(C)C)O2 (stereo not drawn) [Vitamin E, α-tocopherol, reference compound]",effect on neurotoxicity of hydrogen peroxide,"[8]; 50 μg/ml, 1 h pretreatment, 20 h",largely prevented
same,effect on neurotoxicity of iron,[9],completely blocked
